The target in one test is T1, A1 (Homo sapiens, UniProt P30542).
T1 construct: host or cells: Chem-1 cells with promiscuous Gα15
Briefly: GPCR Profiler. It is filed as cell-based.

For another test, the target named is T2, CXCR2 (Homo sapiens, UniProt P25025).
T2 construct: host or cells: Chem-1 cells with Gα15
Nature of the test: GPCR Profiler. The format is cell-based.

In the next test the target is T3, PIK3CA(H1047L) (Homo sapiens, UniProt P42336, H1047L).
T3 construct: purchased DiscoveRx (Fremont, CA)
Briefly: KinomeScan. It is filed as binding. Conditions: read-out: % Control.

In another test the target is T4, HIPK2 (Homo sapiens, UniProt Q9H2X6).
T4 construct: purchased DiscoveRx (Fremont, CA)
Briefly: KinomeScan. It is filed as binding. The conditions noted are these: read-out: % Control.

In the next test the target is T5, DLK (Homo sapiens, UniProt Q12852).
T5 construct: purchased DiscoveRx (Fremont, CA), KinomeScan service
Briefly: KinomeScan. The format is binding. Conditions: read-out: % Control.

The next test has as its target T6, DYRK1B (Homo sapiens, UniProt Q9Y463).
T6 construct: purchased DiscoveRx (Fremont, CA), KinomeScan service
Briefly: KinomeScan. Conditions: read-out: % Control. The format is binding.

In the next test the target is T7, ASK2 (Homo sapiens, UniProt O95382).
T7 construct: purchased DiscoveRx (Fremont, CA)
Nature of the test: KinomeScan. The format is binding. Conditions: read-out: % Control.

The target of another test is T8, ERK3 (Homo sapiens, UniProt Q16659).
T8 construct: purchased DiscoveRx (Fremont, CA)
Nature of the test: KinomeScan. It is filed as binding. Conditions: read-out: % Control.

Another test has as its target T9, CB2 (Homo sapiens, UniProt P34972).
T9 construct: host or cells: Chem-1 cells with promiscuous Gα15
Briefly: GPCR Profiler. The format is cell-based.

A further test concerns the target T10, EGFR(L858R) (Homo sapiens, UniProt P00533, L858R).
T10 construct: purchased DiscoveRx (Fremont, CA), KinomeScan service
Nature of the test: KinomeScan. It is filed as binding. The conditions noted are these: read-out: % Control.

Test [1] has as its target T11, ABL1(E255K)-phosphorylated (Homo sapiens, UniProt P00519, E255K).
T11 construct: purchased DiscoveRx
Nature of the test: KinomeScan. It is filed as binding. The conditions noted are these: read-out: % Control.

For the next test, the target named is T12, PLK4 (Homo sapiens, UniProt O00444).
T12 construct: purchased DiscoveRx (Fremont, CA)
Nature of the test: KinomeScan. It is filed as binding. The conditions noted are these: read-out: % Control.

In another test the target is T13, TRPM6 (Homo sapiens, UniProt Q9BX84).
T13 construct: purchased DiscoveRx (Fremont, CA)
Briefly: KinomeScan. It is filed as binding. Conditions: read-out: % Control.

In another test the target is T14, SRMS (Homo sapiens, UniProt Q9H3Y6).
T14 construct: purchased DiscoveRx (Fremont, CA)
Nature of the test: KinomeScan. It is filed as binding. The conditions noted are these: read-out: % Control.

A further test deals with T15, GPR54 (Homo sapiens, UniProt Q969F8).
T15 construct: host or cells: Chem-1 cells with promiscuous Gα15
Briefly: GPCR Profiler. The format is cell-based.

Another test has as its target T16, V2 (Homo sapiens, UniProt P30518).
T16 construct: host or cells: Chem-1 cells expressing Galpha15
Nature of the test: GPCR Profiler. It is filed as cell-based.

For the next test, the target named is T17, IRAK1 (Homo sapiens, UniProt P51617).
T17 construct: purchased DiscoveRx (Fremont, CA)
Briefly: KinomeScan. The format is binding. The conditions noted are these: read-out: % Control.

The next test has as its target T18, MYLK (Homo sapiens, UniProt Q15746).
T18 construct: purchased DiscoveRx
Nature of the test: KinomeScan. The format is binding. Conditions: read-out: % Control.

The next test deals with T19, TEC (Homo sapiens, UniProt P42680).
T19 construct: purchased DiscoveRx (Fremont, CA)
Nature of the test: KinomeScan. The format is binding. The conditions noted are these: read-out: % Control.

The subject of the next test is WM-115. Nature of the test: Cell Titer-Glo viability, Melanoma. The format is cell-based. As for the experimental part:
OGM2 kills wide variety of cancer cell types. Cell sensitivity can be classified in to Very Sensitive (LC50<2 μM), Sensitive (LC50=2 to 10 μM), Mildly Sensitive (LC50>10 μM), and Refractory (no killing at 10 μM). The listed established cell were incubated with OGM2 at 2 μM or 10 μM for 72 hours under standard cell culture conditions, and relative cell number was assessed using Cell Titer-Glo Luminescent Cell Viability Assay (Promega™) following the manufacturer's instructions. Luminescence was determined using a Cytation 5 reader and Gen5 software package (BioTek™).
Cancer cells, which are very sensitive to killing by OGM2 (LCs <2 μM), with reported mRNA expression of GPR68 and the related proton sensing receptor GPR4. LC50's (concentrations causing 50% lethality) were determined using CellTiter-Glo (Promega™, G7570). Cells were plated in 12-well plates (CELLTREAT Scientific Products, 229112) in 1 ml of DMEM with high glucose, GlutaMAX, HEPES, or RPMI 1640 with Penicillin-Streptomycin (ThermoFisher™, 10564029, 11875119 and 15140122) and 10% FBS. Cells were incubated overnight at 37° C. in 5% CO2. Then 1 mL of fresh media was added with DMSO, OGM, or positive control (Erastin; APExBIO Technology, LLC, B1524) and cells incubated for 3 days. On the third day, all media was removed, cells were rinsed with 1×PBS, PBS was removed, and 200 μL of 1× Passive Lysis Buffer (Promega™, E1941) was added to each well. […]. Subsequently, 20 μL of lysate was added to 100 μL CellTiter-Glo™ reagent on a LUMITRAC 200 plate (Greiner™ bio-one, 82050-726). Plates were briefly spun down and read on a GloMax-Multi Detection System (Promega™).
The cells listed in the tables above were incubated with OGM2 at 2 μM or 10 μM for 72 hours under standard cell culture conditions, and relative cell number was assessed using Cell Titer-Glo Luminescent Cell Viability Assay (Promega™) following the manufacturer's instructions. Luminescence was determined using a Cytation 5 reader and Gen5 software package (BioTek™). RNA expression of GPR68 and GPR4 in the corresponding cancer cell lines are listed, according to the publicly available The Human Protein Atlas version 22.0 and Ensembl version 103.38 (see proteinatlas.org). The consensus normalized expression value (“nTPM”=normalize transcript per million) was calculated as the maximum nTPM value for each gene in the two data sources.
For orientation: In ATP-based viability assays light output follows the ATP content of the culture.

The next test has as its target GPR68 (Homo sapiens, UniProt Q15743). Briefly: Flow-induced calcium response, Chem1-GPR68 cells. The format is cell-based. Set-up: host or cells: Chem-1 cells (Chem1-OGR1). The conditions noted are these: 5-minute pre-incubation with 3 μM OGM2. The method, then: Chem1-GPR68 cells were stained with calcium indicator dye, and then exposed to 34 dyn/cm^2 (3.4 Pa) of force, generating a robust calcium response that could be inhibited by a 5-minute pre-incubation with 3 μM OGM2. […] Of note, one example of a method to enhance expression of ATF4 gene is using CRISPRa with sgRNA targeting the ATF4 gene, including with the s RNAs with the following sequences: […]

The source of these data is patent US20240327364A1, “THERAPEUTIC TARGETING OF GPR68 TO INDUCE FERROPTOSIS” (University Of Maryland, Baltimore, priority 2023, published 2024).

Structures are written as SMILES.

T2 sequence (P25025 whole entry, species assumed): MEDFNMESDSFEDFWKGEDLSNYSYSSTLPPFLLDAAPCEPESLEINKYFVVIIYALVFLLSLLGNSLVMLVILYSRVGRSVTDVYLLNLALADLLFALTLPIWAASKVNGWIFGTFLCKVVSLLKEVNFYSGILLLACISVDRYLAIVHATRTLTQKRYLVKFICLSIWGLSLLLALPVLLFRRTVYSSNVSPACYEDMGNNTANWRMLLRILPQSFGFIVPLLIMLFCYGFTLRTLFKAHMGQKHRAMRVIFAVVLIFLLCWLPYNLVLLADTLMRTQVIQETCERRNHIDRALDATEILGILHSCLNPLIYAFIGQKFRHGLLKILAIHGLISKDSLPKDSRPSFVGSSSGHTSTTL
T15 sequence (Q969F8 whole entry, species assumed): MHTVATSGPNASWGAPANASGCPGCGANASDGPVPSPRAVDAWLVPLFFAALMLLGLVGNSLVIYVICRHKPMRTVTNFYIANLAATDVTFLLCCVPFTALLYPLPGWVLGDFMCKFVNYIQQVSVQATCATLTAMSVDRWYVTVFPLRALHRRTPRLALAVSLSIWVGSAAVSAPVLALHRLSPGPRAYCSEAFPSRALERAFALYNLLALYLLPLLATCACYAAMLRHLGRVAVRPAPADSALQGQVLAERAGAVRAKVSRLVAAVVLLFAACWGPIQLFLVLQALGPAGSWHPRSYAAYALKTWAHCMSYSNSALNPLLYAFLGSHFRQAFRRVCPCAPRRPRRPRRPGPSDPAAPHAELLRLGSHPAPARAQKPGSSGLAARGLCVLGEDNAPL
T16 sequence (P30518 whole entry): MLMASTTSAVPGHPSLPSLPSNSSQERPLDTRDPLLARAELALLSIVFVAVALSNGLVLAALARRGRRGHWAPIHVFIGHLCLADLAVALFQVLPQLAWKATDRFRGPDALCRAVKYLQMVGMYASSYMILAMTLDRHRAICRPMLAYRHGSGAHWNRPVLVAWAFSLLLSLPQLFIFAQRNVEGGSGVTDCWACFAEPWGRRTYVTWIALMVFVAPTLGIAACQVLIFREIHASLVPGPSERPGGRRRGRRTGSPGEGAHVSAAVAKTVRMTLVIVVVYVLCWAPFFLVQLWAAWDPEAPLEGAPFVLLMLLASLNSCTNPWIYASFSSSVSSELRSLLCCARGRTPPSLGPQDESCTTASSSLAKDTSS
T9 sequence (P34972 whole entry, species assumed): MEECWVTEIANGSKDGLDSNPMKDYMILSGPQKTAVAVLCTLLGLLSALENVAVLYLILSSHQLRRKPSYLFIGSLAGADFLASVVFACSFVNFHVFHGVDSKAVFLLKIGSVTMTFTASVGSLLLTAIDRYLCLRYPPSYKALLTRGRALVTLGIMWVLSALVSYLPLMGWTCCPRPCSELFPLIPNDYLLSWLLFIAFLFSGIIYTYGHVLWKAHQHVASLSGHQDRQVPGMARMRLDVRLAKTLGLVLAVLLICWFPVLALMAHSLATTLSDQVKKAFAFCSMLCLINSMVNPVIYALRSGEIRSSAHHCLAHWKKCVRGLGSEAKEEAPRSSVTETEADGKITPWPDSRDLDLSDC
T1 sequence (P30542 whole entry): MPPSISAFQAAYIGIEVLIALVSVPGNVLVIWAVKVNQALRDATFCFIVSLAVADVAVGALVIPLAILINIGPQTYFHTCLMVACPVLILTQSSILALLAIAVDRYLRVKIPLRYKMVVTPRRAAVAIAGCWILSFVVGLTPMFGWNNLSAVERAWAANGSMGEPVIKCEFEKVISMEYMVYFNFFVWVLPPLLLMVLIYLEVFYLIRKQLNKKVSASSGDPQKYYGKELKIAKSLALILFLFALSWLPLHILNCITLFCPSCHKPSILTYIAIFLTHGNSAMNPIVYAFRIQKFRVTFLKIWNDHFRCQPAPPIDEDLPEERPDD
T6 sequence (Q9Y463 whole entry): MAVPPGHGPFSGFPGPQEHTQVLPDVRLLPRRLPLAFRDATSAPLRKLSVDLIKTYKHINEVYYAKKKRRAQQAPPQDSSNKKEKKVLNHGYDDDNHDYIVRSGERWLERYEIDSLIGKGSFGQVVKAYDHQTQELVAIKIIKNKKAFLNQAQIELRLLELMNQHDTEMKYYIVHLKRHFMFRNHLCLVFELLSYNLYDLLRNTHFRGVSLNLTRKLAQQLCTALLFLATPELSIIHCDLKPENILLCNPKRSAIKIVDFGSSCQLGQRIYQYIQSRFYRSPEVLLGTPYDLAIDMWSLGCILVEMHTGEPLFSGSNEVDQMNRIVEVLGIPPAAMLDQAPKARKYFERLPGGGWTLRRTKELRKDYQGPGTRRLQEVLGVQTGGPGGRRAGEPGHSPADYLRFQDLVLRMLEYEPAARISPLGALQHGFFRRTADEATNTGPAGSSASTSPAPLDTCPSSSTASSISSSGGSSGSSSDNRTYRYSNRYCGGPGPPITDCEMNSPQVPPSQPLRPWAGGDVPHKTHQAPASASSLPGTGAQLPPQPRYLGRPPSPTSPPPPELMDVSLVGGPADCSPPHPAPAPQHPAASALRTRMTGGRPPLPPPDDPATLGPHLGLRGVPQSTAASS
T14 sequence (Q9H3Y6 whole entry): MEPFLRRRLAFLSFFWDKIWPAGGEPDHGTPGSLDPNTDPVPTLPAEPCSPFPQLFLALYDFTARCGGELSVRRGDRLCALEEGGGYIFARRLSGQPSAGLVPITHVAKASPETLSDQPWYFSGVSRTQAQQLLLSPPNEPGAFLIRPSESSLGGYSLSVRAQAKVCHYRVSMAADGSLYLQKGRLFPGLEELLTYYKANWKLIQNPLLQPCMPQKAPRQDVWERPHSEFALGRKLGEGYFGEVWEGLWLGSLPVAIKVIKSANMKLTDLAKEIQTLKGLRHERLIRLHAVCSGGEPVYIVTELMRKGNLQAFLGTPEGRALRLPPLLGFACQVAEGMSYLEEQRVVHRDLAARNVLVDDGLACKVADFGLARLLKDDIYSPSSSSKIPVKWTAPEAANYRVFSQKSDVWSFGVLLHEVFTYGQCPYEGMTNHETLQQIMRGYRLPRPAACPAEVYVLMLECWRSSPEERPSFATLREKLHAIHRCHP
T19 sequence (P42680 whole entry): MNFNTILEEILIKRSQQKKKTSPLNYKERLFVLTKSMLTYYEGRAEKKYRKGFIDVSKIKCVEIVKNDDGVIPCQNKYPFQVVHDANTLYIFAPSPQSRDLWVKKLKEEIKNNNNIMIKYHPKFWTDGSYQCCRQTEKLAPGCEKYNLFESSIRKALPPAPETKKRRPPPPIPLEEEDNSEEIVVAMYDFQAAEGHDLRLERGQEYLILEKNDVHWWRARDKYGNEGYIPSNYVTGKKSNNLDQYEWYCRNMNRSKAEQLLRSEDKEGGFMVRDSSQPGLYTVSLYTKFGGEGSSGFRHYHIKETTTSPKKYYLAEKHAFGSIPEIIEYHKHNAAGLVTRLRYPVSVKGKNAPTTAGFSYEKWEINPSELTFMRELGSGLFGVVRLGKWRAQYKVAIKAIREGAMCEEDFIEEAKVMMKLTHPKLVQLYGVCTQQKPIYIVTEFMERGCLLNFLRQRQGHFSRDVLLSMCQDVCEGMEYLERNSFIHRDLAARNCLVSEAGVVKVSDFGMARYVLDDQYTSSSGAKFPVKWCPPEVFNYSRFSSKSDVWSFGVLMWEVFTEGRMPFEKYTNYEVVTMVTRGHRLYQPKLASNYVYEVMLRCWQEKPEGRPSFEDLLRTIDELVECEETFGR
T10 sequence (P00533 25-1210 L858R): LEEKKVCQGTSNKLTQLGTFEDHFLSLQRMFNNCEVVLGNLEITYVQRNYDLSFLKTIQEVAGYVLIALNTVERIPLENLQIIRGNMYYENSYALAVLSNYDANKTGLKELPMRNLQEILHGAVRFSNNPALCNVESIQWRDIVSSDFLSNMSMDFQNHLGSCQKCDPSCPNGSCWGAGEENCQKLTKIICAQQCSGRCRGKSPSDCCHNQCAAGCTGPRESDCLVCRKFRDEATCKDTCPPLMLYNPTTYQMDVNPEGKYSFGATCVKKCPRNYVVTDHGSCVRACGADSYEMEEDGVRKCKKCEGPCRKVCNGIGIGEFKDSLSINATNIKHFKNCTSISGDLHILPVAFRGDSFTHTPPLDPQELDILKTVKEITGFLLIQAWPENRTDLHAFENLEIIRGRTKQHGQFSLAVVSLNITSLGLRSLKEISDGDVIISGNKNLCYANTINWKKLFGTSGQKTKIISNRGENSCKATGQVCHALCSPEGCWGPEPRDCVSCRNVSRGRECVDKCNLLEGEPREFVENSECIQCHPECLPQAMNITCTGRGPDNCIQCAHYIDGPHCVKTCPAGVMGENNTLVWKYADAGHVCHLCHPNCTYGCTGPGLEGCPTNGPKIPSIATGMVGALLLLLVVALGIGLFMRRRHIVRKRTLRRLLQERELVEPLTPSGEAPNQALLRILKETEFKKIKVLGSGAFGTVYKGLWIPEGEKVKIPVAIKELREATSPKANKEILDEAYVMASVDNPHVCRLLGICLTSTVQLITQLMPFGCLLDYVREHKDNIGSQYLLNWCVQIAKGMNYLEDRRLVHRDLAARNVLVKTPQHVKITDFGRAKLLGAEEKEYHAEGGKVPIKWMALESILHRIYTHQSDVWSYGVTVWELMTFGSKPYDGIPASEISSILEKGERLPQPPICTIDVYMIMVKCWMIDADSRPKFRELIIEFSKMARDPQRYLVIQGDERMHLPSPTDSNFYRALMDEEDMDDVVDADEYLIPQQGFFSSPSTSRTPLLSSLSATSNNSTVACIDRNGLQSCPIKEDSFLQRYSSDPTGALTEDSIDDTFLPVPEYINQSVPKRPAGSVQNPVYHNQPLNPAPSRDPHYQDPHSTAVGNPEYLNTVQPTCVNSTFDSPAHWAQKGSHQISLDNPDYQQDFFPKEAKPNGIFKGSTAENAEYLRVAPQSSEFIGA

For `CCc1ccc2c(c1)C1(NN=C(c3cccc4ccccc34)S1)C(=O)N2` (centres unmarked) [OGM1, 5-ethyl-5′-naphthalen-1-ylspiro[1H-indole-3,2′-3H-1,3,4-thiadiazole]-2-one], the Antagonism on A1 (10 uM) is listed as −13.9; on CXCR2 (10 uM), −3.1; at CB2 (10 uM), −13.8; at GPR54 (10 uM) it was −5.8; on V2 (10 uM), 2.9. The Agonism on A1 (12.5 uM) is 0.1; at CXCR2 (12.5 uM), 0.5; on CB2 (12.5 uM), −2.4; at GPR54 (12.5 uM), −0.6; at V2 (12.5 uM), 0.6. For the same molecule, the remaining binding at 10 µM on PIK3CA(H1047L) is 100%; at HIPK2, 100%; at DLK, 40%; on DYRK1B it was 58%; on ASK2, 100%; on ERK3, 100%. Besides, the remaining binding at 10 µM was 100% on EGFR(L858R); 77% in test [1]; 71% at PLK4; 80% on TRPM6; 80% on SRMS; 100% at IRAK1. Further, the remaining binding at 10 µM is 91% at MYLK and 93% at TEC.

Regarding `CCc1ccc2c(c1)C1(NN=C(c3ccccc3)S1)C(=O)N2` (centres unmarked) [OGM2], in the test with WM-115, the Class entry is recorded as “Sensitive (Sensitive (LC50=2 to 10 μM))”. Further, in the test with WM-115 (72 hours), the “% Survival 2 μM OGM” value is on record as 92.9% and the “% Survival 10 μM OGM” value came to 40.7%. For the same molecule, the CC50 in the test with WM-115 (Homo sapiens, WM-115, 72 hours, read-out: LC50 (the source's name)) lay in the range of 2 to 10 µM. Moreover, the “calcium response to 34 dyn/cm^2 flow” value on GPR68 is listed as “inhibited”.
